Data reported in US6838416B2, “Herbicidal 5-benzyloxymethyl-1,2-isoxazoline derivatives” (Korea Research Institute of Chemical Technology, priority 2000, dated 2005).

Columns and labels:
[1] = system: ORYSA (3-leaf stage); experiment: Assay for herbicidal activity, paddy pots: phytotoxicity to transplanted rice seedlings; type: in vivo, Oryza sativa L.
From the text: (§1) To evaluate herbicidal activity against the paddy weeds in the paddy rice (ORYSA: Oryza sativa L.), the herbicidal activity of the compounds of the invention was compared to that of the compound No.109 (compound A) disclosed in U.S. Pat. […] The paddy weeds tested were ECHOR (Echinochloa crus-galli var. oryzicola), SCPJU (Scirpus juncoides ROXB), MOOVA (Monochoria vaginalis […] (Cyperus serotinus ROTTB), and SAGPY (Sagittaria pygmaea MTQ). The vessels employed were plastic pots having an area of 140 cm^2 and filled with a sandy loam soil containing 1.2% organic matter (pH 6).

[2] = system: ORYSA (seed); experiment: Assay for herbicidal activity, paddy pots: phytotoxicity to seeded (pregerminated) rice; type: in vivo, Oryza sativa L.
From the text: as §1

[3] = system: ECHOR (seed); experiment: Assay for herbicidal activity, paddy pots: ECHOR; type: in vivo, Echinochloa crus-galli var. oryzicola; conditions: three weeks after application, 0 untreated control, 100 complete kill
From the text: as §1

[4] = system: SCPJU (seed); experiment: Assay for herbicidal activity, paddy pots: SCPJU; type: in vivo, Scirpus juncoides ROXB; conditions: three weeks after application, 0 untreated control, 100 complete kill
From the text: as §1

[5] = system: MOOVA (seed); experiment: Assay for herbicidal activity, paddy pots: MOOVA; type: in vivo, Monochoria vaginalis PRESL; conditions: three weeks after application, 0 untreated control, 100 complete kill
From the text: as §1

[6] = system: CYPSE (tuber); experiment: Assay for herbicidal activity, paddy pots: CYPSE; type: in vivo, Cyperus serotinus ROTTB; conditions: three weeks after application, 0 untreated control, 100 complete kill
From the text: as §1

[7] = system: SAGPY (tuber); experiment: Assay for herbicidal activity, paddy pots: SAGPY; type: in vivo, Sagittaria pygmaea MTQ; conditions: three weeks after application, 0 untreated control, 100 complete kill
From the text: as §1

[8] = 0.016 kg/ha, three weeks after application, 0 untreated control, 100 complete kill
[9] = 0.063 kg/ha, three weeks after application, 0 untreated control, 100 complete kill
[10] = 0.250 kg/ha, three weeks after application, 0 untreated control, 100 complete kill
[11] = 1.000 kg/ha, three weeks after application, 0 untreated control, 100 complete kill
[12] = 4.000 kg/ha, three weeks after application, 0 untreated control, 100 complete kill

Structure (SMILES) | ECHOR (seed) herbicidal activity, visual percentage grading ([3]; 0.016 kg/ha) | ECHOR (seed) herbicidal activity, visual percentage grading ([3]; 0.063 kg/ha) | ECHOR (seed) herbicidal activity, visual percentage grading ([3]; 0.250 kg/ha) | ECHOR (seed) herbicidal activity, visual percentage grading ([3]; 1.000 kg/ha) | ECHOR (seed) herbicidal activity, visual percentage grading ([3]; 4.000 kg/ha) | SCPJU (seed) herbicidal activity, visual percentage grading ([4]; 0.016 kg/ha) | SCPJU (seed) herbicidal activity, visual percentage grading ([4]; 0.063 kg/ha) | SCPJU (seed) herbicidal activity, visual percentage grading ([4]; 0.250 kg/ha) | SCPJU (seed) herbicidal activity, visual percentage grading ([4]; 1.000 kg/ha) | SCPJU (seed) herbicidal activity, visual percentage grading ([4]; 4.000 kg/ha) | MOOVA (seed) herbicidal activity, visual percentage grading ([5]; 0.016 kg/ha) | MOOVA (seed) herbicidal activity, visual percentage grading ([5]; 0.063 kg/ha) | MOOVA (seed) herbicidal activity, visual percentage grading ([5]; 0.250 kg/ha) | MOOVA (seed) herbicidal activity, visual percentage grading ([5]; 1.000 kg/ha) | MOOVA (seed) herbicidal activity, visual percentage grading ([5]; 4.000 kg/ha) | CYPSE (tuber) herbicidal activity, visual percentage grading ([6]; 0.016 kg/ha) | CYPSE (tuber) herbicidal activity, visual percentage grading ([6]; 0.063 kg/ha) | CYPSE (tuber) herbicidal activity, visual percentage grading ([6]; 0.250 kg/ha) | CYPSE (tuber) herbicidal activity, visual percentage grading ([6]; 1.000 kg/ha) | CYPSE (tuber) herbicidal activity, visual percentage grading ([6]; 4.000 kg/ha) | also measured
Cc1ccsc1C1=NOC(C)(COCc2ccccc2F)C1 (centres unmarked) [EXAMPLE 6, 5-(2-fluorobenzyl)oxymethyl-5-methyl-3-(4-methylthiophene-5-yl)-1,2-isoxazoline] | 20% | 100% | 100% | 100% | 100% | 20% | 80% | 80% | 100% | 100% | 0% | 70% | 80% | 80% | 100% | 100% | 100% | 100% | 100% | 100% | ORYSA (3-leaf stage) phytotoxicity, visual percentage grading [1, 8]: 0%; ORYSA (3-leaf stage) phytotoxicity, visual percentage grading [1, 9]: 20%; ORYSA (3-leaf stage) phytotoxicity, visual percentage grading [1, 10]: 20%; ORYSA (3-leaf stage) phytotoxicity, visual percentage grading [1, 11]: 30%; ORYSA (3-leaf stage) phytotoxicity, visual percentage grading [1, 12]: 30%; ORYSA (seed) phytotoxicity, visual percentage grading [2, 8]: 0%; ORYSA (seed) phytotoxicity, visual percentage grading [2, 9]: 40%; ORYSA (seed) phytotoxicity, visual percentage grading [2, 10]: 100%; ORYSA (seed) phytotoxicity, visual percentage grading [2, 11]: 100%; ORYSA (seed) phytotoxicity, visual percentage grading [2, 12]: 100%; SAGPY (tuber) herbicidal activity, visual percentage grading ([7]; 0.016 kg/ha): 0%; SAGPY (tuber) herbicidal activity, visual percentage grading ([7]; 0.063 kg/ha): 0%; SAGPY (tuber) herbicidal activity, visual percentage grading ([7]; 0.250 kg/ha): 0%; SAGPY (tuber) herbicidal activity, visual percentage grading ([7]; 1.000 kg/ha): 30%; SAGPY (tuber) herbicidal activity, visual percentage grading ([7]; 4.000 kg/ha): 30%
CC1(COCc2c(F)cccc2F)CC(c2ccc(Br)s2)=NO1 (centres unmarked) [EXAMPLE 11, 5-(2,6-difluorobenzyl)oxymethyl-5-methyl-3-(2-bromothiophene-5-yl)-1,2-isoxazoline] | 20% | 70% | 100% | 100% | 100% | 0% | 0% | 20% | 30% | 80% | 30% | 50% | 90% | 100% | 100% | 0% | 0% | 40% | 100% | 100% | ORYSA (3-leaf stage) phytotoxicity, visual percentage grading ([1]; in vivo): 0%; SAGPY (tuber) herbicidal activity, visual percentage grading ([7]; 0.016 kg/ha): 0%; SAGPY (tuber) herbicidal activity, visual percentage grading ([7]; 0.063 kg/ha): 0%; SAGPY (tuber) herbicidal activity, visual percentage grading ([7]; 0.250 kg/ha): 0%; SAGPY (tuber) herbicidal activity, visual percentage grading ([7]; 1.000 kg/ha): 30%; SAGPY (tuber) herbicidal activity, visual percentage grading ([7]; 4.000 kg/ha): 50%
CC1(COCc2cccc(F)c2)CC(c2sccc2Br)=NO1 (centres unmarked) [EXAMPLE 18, 5-(3-fluorobenzyl)oxymethyl-5-methyl-3-(4-bromothiophene-5-yl)-1,2-isoxazoline] | 0% | 60% | 100% | 100% | 100% | 0% | 10% | 100% | 100% | 100% | 0% | 100% | 100% | 100% | 100% | 0% | 40% | 70% | 100% | 100% | ORYSA (3-leaf stage) phytotoxicity, visual percentage grading ([1]; in vivo): 0%; ORYSA (seed) phytotoxicity, visual percentage grading ([2]; in vivo): 100%; SAGPY (tuber) herbicidal activity, visual percentage grading ([7]; 0.016 kg/ha): 0%; SAGPY (tuber) herbicidal activity, visual percentage grading ([7]; 0.063 kg/ha): 0%; SAGPY (tuber) herbicidal activity, visual percentage grading ([7]; 0.250 kg/ha): 0%; SAGPY (tuber) herbicidal activity, visual percentage grading ([7]; 1.000 kg/ha): 0%; SAGPY (tuber) herbicidal activity, visual percentage grading ([7]; 4.000 kg/ha): 20%
CC1(COCc2c(F)cccc2F)CC(c2ccc([N+](=O)[O-])s2)=NO1 (centres unmarked) [EXAMPLE 23, 5-(2,6-difluorobenzyl)oxymethyl-5-methyl-3-(2-nitrothiophene-5-yl)-1,2-isoxazoline] | 0% | 30% | 100% | 100% | 100% | 0% | 0% | 0% | 0% | 100% | 0% | 50% | 70% | 100% | 100% | 0% | 0% | 50% | 80% | 100% | SAGPY (tuber) herbicidal activity, visual percentage grading ([7]; 0.016 kg/ha): 0%; SAGPY (tuber) herbicidal activity, visual percentage grading ([7]; 0.063 kg/ha): 0%; SAGPY (tuber) herbicidal activity, visual percentage grading ([7]; 0.250 kg/ha): 0%; SAGPY (tuber) herbicidal activity, visual percentage grading ([7]; 1.000 kg/ha): 0%; SAGPY (tuber) herbicidal activity, visual percentage grading ([7]; 4.000 kg/ha): 0%
